System: mouse cortical cultures
Assay: RNA-seq differential expression (DESeq) against matched vehicle
Type: cell-based
Set-up: key to MeanFenamidone Bcl11b / MeanFenamidone Slc12a4 / MeanFenamidone Abca1 / MeanFenamidone Hmox1 / MeanFenamidone Il1rap / MeanFenamidone Cyba / MeanFenamidone Narf / MeanFenamidone Bnip3 / MeanFenamidone Amotl2 / MeanFenamidone Gad2 / MeanFenamidone Vsnl1 / MeanFenamidone Fam178a: DESeq mean of counts over RefSeq exons
Settings: for MeanFenamidone (DESeq mean normalized counts): Fenamidone, vs matched vehicle
Method: Figure 4 Cluster 2 chemicals alter expression of a common set of genes. […] RNA-seq was performed in quadruplicate after treating cortical cultures with fenamidone (10 μM) or pyraclostrobin (0.1 μM) for 24 h (n=3 biological replicates) and compared with matched vehicle controls using DESeq to detect differentially expressed genes, listed in Supplementary Data 4.
Cultures were treated with the non-cytotoxic dose of each chemical, by exchanging half of the original medium with chemicals at 2 × concentration in prewarmed feeding medium, on DIV 7 for 24 h in 12-well plates at a density of 5 × 10^5 cells per well. RNA was isolated using RNeasy plus mini kit (Cat. #74134, Qiagen). […]. Samples were further assessed for quality using either an Agilent Bioanalyzer 2100 or TapeStation 2200 to obtain a RIN. RIN values exceeding 7 were used for sequencing. RNA samples were used to generate and barcode complementary DNA libraries using the TruSeq RNA Library Preparation Kit at the UNC High Throughput Sequencing Facility. Pools of 24 multiplexed samples were sequenced per lane on an Illumina HiSeq 2500 using 50-bp paired-end reads.
RNA-seq reads were filtered using TagDust and aligned to the reference mouse genome (mm9) with TopHat using default parameters. Reads aligning to ribosomal RNA genes were removed. Transcript abundance was estimated by computing Reads per kilobase per million mapped reads (RPKM) using RefSeq gene models aggregated by gene symbol. For differential expression analyses, raw counts over RefSeq exons were used, and then were compared across samples using DESeq[62].

## CSC1=N[C@@](C)(c2ccccc2)C(=O)N1Nc1ccccc1 [fenamidone]
Gene Prss23
  log2FoldChange: 2.578
Gene Ptpn14, DESeq mean, 4 reps
  MeanFenamidone Ptpn14: 536.253
Gene Ptpn14, vs vehicle, 4 reps
  log2FoldChange Ptpn14: 2.06
Gene Ptpro
  MeanFenamidone: 128.9
  log2FoldChange: -1.349
Gene Rab6b
  MeanFenamidone: 1528.43
  log2FoldChange: -1.231
Gene Rian, DESeq mean, 4 reps
  MeanFenamidone Rian: 479.419
Gene Rian, vs vehicle, 4 reps
  log2FoldChange Rian: -1.772
Gene Rimkla, DESeq mean, 4 reps
  MeanFenamidone Rimkla: 54.5497
Gene Rimkla, vs vehicle, 4 reps
  log2FoldChange Rimkla: -1.586
Gene Rph3a, DESeq mean, 4 reps
  MeanFenamidone Rph3a: 62.2069
Gene Rph3a, vs vehicle, 4 reps
  log2FoldChange Rph3a: -2.0001
Gene Rsu1
  MeanFenamidone: 240.928
  log2FoldChange: 1.174
Gene Samd4, DESeq mean, 4 reps
  MeanFenamidone Samd4: 336.652
Gene Samd4, vs vehicle, 4 reps
  log2FoldChange Samd4: 1.621
Gene Scn2a1, DESeq mean, 4 reps
  MeanFenamidone Scn2a1: 402.156
Gene Scn2a1, vs vehicle, 4 reps
  log2FoldChange Scn2a1: -1.491
Gene Sdc1, DESeq mean, 4 reps
  MeanFenamidone Sdc1: 327.963
Gene Sdc1, vs vehicle, 4 reps
  log2FoldChange Sdc1: 1.6746
Gene Sdc3
  MeanFenamidone: 1856.44
  log2FoldChange: -1.095
Gene Serpine2, DESeq mean, 4 reps
  MeanFenamidone Serpine2: 777.193
Gene Serpine2, vs vehicle, 4 reps
  log2FoldChange Serpine2: 1.421
Gene Serpinf1, 4 reps
  MeanFenamidone (DESeq mean normalized counts): 51.7434
Gene Serpini1, DESeq mean, 4 reps
  MeanFenamidone Serpini1: 255.176
Gene Serpini1, vs vehicle, 4 reps
  log2FoldChange Serpini1: -1.567
Gene Sgpl1
  MeanFenamidone: 504.223
  log2FoldChange: 1.381
Gene Shank1, DESeq mean, 4 reps
  MeanFenamidone Shank1: 288.972
Gene Shank1, vs vehicle, 4 reps
  log2FoldChange Shank1: -1.584
Gene Shmt2
  MeanFenamidone: 164.927
  log2FoldChange: 1.37
Gene Slc3a2, DESeq mean, 4 reps
  MeanFenamidone Slc3a2: 1206
Gene Slc3a2, vs vehicle, 4 reps
  log2FoldChange Slc3a2: 1.496
Gene Slc4a2
  MeanFenamidone: 227.842
  log2FoldChange: 1.898
Gene Slc5a3, DESeq mean, 4 reps
  MeanFenamidone Slc5a3: 905.314
Gene Slc5a3, vs vehicle, 4 reps
  log2FoldChange Slc5a3: 1.342
Gene Slc8a3, DESeq mean, 4 reps
  MeanFenamidone Slc8a3: 22.3077
Gene Slc8a3, vs vehicle, 4 reps
  log2FoldChange Slc8a3: -2.167
Gene Slc12a4, DESeq mean, 4 reps
  MeanFenamidone Slc12a4: 353.466
Gene Slc12a4, vs vehicle, 4 reps
  log2FoldChange Slc12a4: 2.575
Gene Slc12a5, DESeq mean, 4 reps
  MeanFenamidone Slc12a5: 198.315
Gene Slc12a5, vs vehicle, 4 reps
  log2FoldChange Slc12a5: -1.614
Gene Slc12a7
  MeanFenamidone: 123.511
  log2FoldChange: 2.012
Gene Slc32a1, DESeq mean, 4 reps
  MeanFenamidone Slc32a1: 76.5704
Gene Slc32a1, vs vehicle, 4 reps
  log2FoldChange Slc32a1: -1.6789
Gene Slit2
  MeanFenamidone: 473.475
  log2FoldChange: 1.336
Gene Slitrk3
  MeanFenamidone: 59.0221
  log2FoldChange: -1.399
Gene Smpd3, DESeq mean, 4 reps
  MeanFenamidone Smpd3: 450.951
Gene Smpd3, vs vehicle, 4 reps
  log2FoldChange Smpd3: -1.523
Gene Snap91
  MeanFenamidone: 577.837
  log2FoldChange: -1.2276
Gene Snx33, DESeq mean, 4 reps
  MeanFenamidone Snx33: 193.085
Gene Snx33, vs vehicle, 4 reps
  log2FoldChange Snx33: 2.21
Gene Sorl1
  MeanFenamidone: 374.526
  log2FoldChange: 1.703
Gene Spock3, DESeq mean, 4 reps
  MeanFenamidone Spock3: 49.3806
Gene Spock3, vs vehicle, 4 reps
  log2FoldChange Spock3: -2.6448
Gene Sprn, DESeq mean, 4 reps
  MeanFenamidone Sprn: 108.373
Gene Sprn, vs vehicle, 4 reps
  log2FoldChange Sprn: -1.675
Gene Srxn1, DESeq mean, 4 reps
  MeanFenamidone Srxn1: 1016.41
Gene Srxn1, vs vehicle, 4 reps
  log2FoldChange Srxn1: 2.241
Gene Ssc5d
  MeanFenamidone: 60.5262
  log2FoldChange: 1.812
Gene Ssfa2, DESeq mean, 4 reps
  MeanFenamidone Ssfa2: 339.098
Gene Ssfa2, vs vehicle, 4 reps
  log2FoldChange Ssfa2: 1.684
Gene St8sia1
  MeanFenamidone: 138.691
  log2FoldChange: -1.185
Gene St8sia3, DESeq mean, 4 reps
  MeanFenamidone St8sia3: 218.799
Gene St8sia3, vs vehicle, 4 reps
  log2FoldChange St8sia3: -1.589
Gene St8sia4
  MeanFenamidone: 83.2874
  log2FoldChange: -1.239
Gene Sult4a1
  MeanFenamidone: 337.631
  log2FoldChange: -1.1579
Gene Sv2b, DESeq mean, 4 reps
  MeanFenamidone Sv2b: 206.444
Gene Sv2b, vs vehicle, 4 reps
  log2FoldChange Sv2b: -1.8053
Gene Svil, 4 reps
  MeanFenamidone (DESeq mean normalized counts): 63.1892
Gene Syn2, DESeq mean, 4 reps
  MeanFenamidone Syn2: 290.905
Gene Syn2, vs vehicle, 4 reps
  log2FoldChange Syn2: -1.354
Gene Syp, DESeq mean, 4 reps
  MeanFenamidone Syp: 891.603
Gene Syp, vs vehicle, 4 reps
  log2FoldChange Syp: -1.4647
Gene Syt1, DESeq mean, 4 reps
  MeanFenamidone Syt1: 825.321
Gene Syt1, vs vehicle, 4 reps
  log2FoldChange Syt1: -1.819
Gene Tagln, DESeq mean, 4 reps
  MeanFenamidone Tagln: 2032.34
Gene Tagln, vs vehicle, 4 reps
  log2FoldChange Tagln: 3.012
Gene Tead1, DESeq mean, 4 reps
  MeanFenamidone Tead1: 925.254
Gene Tead1, vs vehicle, 4 reps
  log2FoldChange Tead1: 2.035
Gene Tgfb2, DESeq mean, 4 reps
  MeanFenamidone Tgfb2: 420.529
Gene Tgfb2, vs vehicle, 4 reps
  log2FoldChange Tgfb2: 1.82
Gene Tgfb3, DESeq mean, 4 reps
  MeanFenamidone Tgfb3: 398.538
Gene Tgfb3, vs vehicle, 4 reps
  log2FoldChange Tgfb3: 2.304
Gene Thbs1, DESeq mean, 4 reps
  MeanFenamidone Thbs1: 3138.32
Gene Thbs1, vs vehicle, 4 reps
  log2FoldChange Thbs1: 2.61
Gene Tln1, DESeq mean, 4 reps
  MeanFenamidone Tln1: 658.354
Gene Tln1, vs vehicle, 4 reps
  log2FoldChange Tln1: 2.579
Gene Tmbim1, DESeq mean, 4 reps
  MeanFenamidone Tmbim1: 170.347
Gene Tmbim1, vs vehicle, 4 reps
  log2FoldChange Tmbim1: 2.378
Gene Tmem181b-ps
  MeanFenamidone: 77.9777
  log2FoldChange: -1.325
Gene Tmem229b
  MeanFenamidone: 256.203
  log2FoldChange: -1.123
Gene Tnc, DESeq mean, 4 reps
  MeanFenamidone Tnc: 998.798
Gene Tnc, vs vehicle, 4 reps
  log2FoldChange Tnc: 2.934
Gene Tnfrsf10b, DESeq mean, 4 reps
  MeanFenamidone Tnfrsf10b: 126.269
Gene Tnfrsf10b, vs vehicle, 4 reps
  log2FoldChange Tnfrsf10b: 2.1709
Gene Tnfrsf12a, DESeq mean, 4 reps
  MeanFenamidone Tnfrsf12a: 307.752
Gene Tnfrsf12a, vs vehicle, 4 reps
  log2FoldChange Tnfrsf12a: 3.087
Gene Tns1
  MeanFenamidone: 238.258
  log2FoldChange: 2.58
Gene Tpm4, DESeq mean, 4 reps
  MeanFenamidone Tpm4: 930.727
Gene Tpm4, vs vehicle, 4 reps
  log2FoldChange Tpm4: 1.809
Gene Tpp1, DESeq mean, 4 reps
  MeanFenamidone Tpp1: 440.575
Gene Tpp1, vs vehicle, 4 reps
  log2FoldChange Tpp1: 1.842
Gene Tro
  MeanFenamidone: 343.733
  log2FoldChange: -1.218
Gene Tspyl4
  MeanFenamidone: 870.895
  log2FoldChange: -1.118
Gene Tuba4a, DESeq mean, 4 reps
  MeanFenamidone Tuba4a: 131.218
Gene Tuba4a, vs vehicle, 4 reps
  log2FoldChange Tuba4a: -1.604
Gene Tubb6, DESeq mean, 4 reps
  MeanFenamidone Tubb6: 522.566
Gene Tubb6, vs vehicle, 4 reps
  log2FoldChange Tubb6: 2.127
Gene Tuft1, DESeq mean, 4 reps
  MeanFenamidone Tuft1: 71.0226
Gene Tuft1, vs vehicle, 4 reps
  log2FoldChange Tuft1: 2.58
Gene Txnrd1, DESeq mean, 4 reps
  MeanFenamidone Txnrd1: 1365.85
Gene Txnrd1, vs vehicle, 4 reps
  log2FoldChange Txnrd1: 1.713
Gene Uap1l1, DESeq mean, 4 reps
  MeanFenamidone Uap1l1: 115.372
Gene Uap1l1, vs vehicle, 4 reps
  log2FoldChange Uap1l1: 2.463
Gene Vash1
  MeanFenamidone: 501.714
  log2FoldChange: -1.142
Gene Vasn, DESeq mean, 4 reps
  MeanFenamidone Vasn: 270.313
Gene Vasn, vs vehicle, 4 reps
  log2FoldChange Vasn: 2.194
Gene Vcl, DESeq mean, 4 reps
  MeanFenamidone Vcl: 498.388
Gene Vcl, vs vehicle, 4 reps
  log2FoldChange Vcl: 2.095
Gene Vgll3, DESeq mean, 4 reps
  MeanFenamidone Vgll3: 231.289
Gene Vgll3, vs vehicle, 4 reps
  log2FoldChange Vgll3: 2.348
Gene Vim
  MeanFenamidone: 6511.9
  log2FoldChange: 1.994
Gene Vsnl1, DESeq mean, 4 reps
  MeanFenamidone Vsnl1: 216.784
Gene Vsnl1, vs vehicle, 4 reps
  log2FoldChange Vsnl1: -1.6854
Gene Wls, DESeq mean, 4 reps
  MeanFenamidone Wls: 676.758
Gene Wls, vs vehicle, 4 reps
  log2FoldChange Wls: 1.397
Gene Wnk1, DESeq mean, 4 reps
  MeanFenamidone Wnk1: 1955.12
Gene Wnk1, vs vehicle, 4 reps
  log2FoldChange Wnk1: 1.378
Gene Xkr4, DESeq mean, 4 reps
  MeanFenamidone Xkr4: 97.5483
Gene Xkr4, vs vehicle, 4 reps
  log2FoldChange Xkr4: -1.595
Gene Zak
  MeanFenamidone: 216.098
  log2FoldChange: 1.697
Gene Zbtb7b
  MeanFenamidone: 137.122
  log2FoldChange: 2.108
Gene Zfp36l2, DESeq mean, 4 reps
  MeanFenamidone Zfp36l2: 339.831
Gene Zfp36l2, vs vehicle, 4 reps
  log2FoldChange Zfp36l2: 2.067
